Read-outs that look alike come from different tables or passages of the source.
Legend:
[1] = therapeutic total cmax; ref PMID; cited from earlier work
[2] = tested on: primary human hepatocytes (PHH) 3D spheroids
[3] = ref DrugBank and Prescribers' Digital Reference database; cited from earlier work
clinical DILI in man = settings: cited from earlier work
PHH 2D sandwich cultures = settings: PHH 2D sandwich cultures, 100x Cmax; ref Xu 2008; cited from earlier work
[4] = FDA drug labeling DILI score, ref Chen et al., 2011
[5] = clinical DILI classification in man (POS/NEG)
[6] = clinical DILI classification used in this study, Supplementary Table 2, ref Chen et al., 2011, Guo et al., 2005, O'Brien et al., 2006, Sakatis et al., 2012, Suzuki et al., 2010, Xu et al., 2008
[7] = clinical DILI classification, Supplementary Table 1, ref Chen et al., 2011, Guo et al., 2005, O'Brien et al., 2006, Sakatis et al., 2012, Suzuki et al., 2010, Xu et al., 2008
[8] = reported pattern of liver damage, Supplementary Table 2, ref literature
[9] = clinical DILI classification, ref Xu et al. (2008)

| SMILES | Cmax [1] | Chemically defined spheroids (this study) 20x [2] | Extent of hepatic metabolism [3] | FDA (0-8) (clinical DILI in man; [4]) | DILI in vivo (clinical DILI in man; [5]) | Classified as (clinical DILI in man; [6]) | DILI in vivo (clinical DILI in man; [7]) | Type of DILI (clinical DILI in man; [8]) | 2Dsw (Xu 2008) 100x (PHH 2D sandwich cultures) | Classified as (clinical DILI in man; in vivo) | Clinical DILI class (panel heading of Figure 4) (clinical DILI in man; in vivo) | DILI in vivo (clinical DILI in man; in vivo) | Type of DILI (clinical DILI in man; in vivo) | other results |
| --- | --- | --- | --- | --- | --- | --- | --- | --- | --- | --- | --- | --- | --- | --- |
| CCCN(CCC)C(=O)Cc1c(-c2ccc(Cl)cc2)nc2ccc(Cl)cn12 [Alpidem] | 670 nM | Positive | Extensive | Withdrawn | POS | POS | POS | Hepatocellular injury |  |  |  |  |  | Suzuki et al. (2010) (clinical DILI in man; DILI classification score, ref Suzuki et al. (2010)): 3; FDA (Severity) (clinical DILI in man; FDA drug labeling DILI concern, ref Chen et al., 2011): most DILI concern; Sakatis et al. (2012) (clinical DILI in man; clinical hepatotoxicity classification, ref Sakatis et al. (2012)): Hepatotoxic |
| CCC1(c2ccc(N)cc2)CCC(=O)NC1=O (stereo not drawn) [Aminoglutethimide] | 25400 nM | Negative | Moderate |  | NEG | NEG | NEG | Non-hepatotoxic | Negative |  |  |  |  |  |
| CCN(CC)Cc1cc(Nc2ccnc3cc(Cl)ccc23)ccc1O [Amodiaquine] | 1910 nM | Positive | Extensive |  |  |  |  |  |  | POS | Severe DILI | POS | Hepatocellular injury | hepatotoxicity evaluation in CD-spheroids ([2]; human, 14 days): highly toxic at 5× and 20× of therapeutic serum levels; Clinical DILI classification (Figure 5) (clinical DILI in man; in vivo): DILI positive |
| Clc1ccc2c(c1)C(N1CCNCC1)=Nc1ccccc1O2 [Amoxapine] | 220 nM | Negative | Extensive | 3 | NEG | NEG | NEG | Non-hepatotoxic | Negative |  |  |  |  | hepatotoxicity evaluation in CD-spheroids [2]: not found to be toxic at any concentration tested; Xu et al. (2008) (clinical DILI in man; [9]): Negative; Clinical DILI classification (Figure 5) (clinical DILI in man; structural analogue pairs, Figure 5, ref Chen et al., 2011, Xu et al., 2008 and others): DILI negative |
| Nc1cc(-c2ccncc2)c[nH]c1=O [Amrinone] | 13800 nM | Negative | Extensive | 5 | POS | POS | POS | Hepatocellular injury | Negative |  |  |  |  | Xu et al. (2008) (clinical DILI in man; [9]): Positive |
| CN(C)C(=O)Oc1cc(OC(=O)N(C)C)cc(C(O)CNC(C)(C)C)c1 (stereo not drawn) [Bambuterol] | 10 nM | Negative | Extensive |  | NEG | NEG | NEG | Non-hepatotoxic | Negative |  |  |  |  |  |
| CC(C)COCC(CN(Cc1ccccc1)c1ccccc1)N1CCCC1 (stereo not drawn) [Bepridil] | 2000 nM | Positive | Extensive |  | POS | POS | POS | Hepatocellular injury | Positive |  |  |  |  |  |
| CC(C)(Oc1ccc(CCNC(=O)c2ccc(Cl)cc2)cc1)C(=O)O [Bezafibrate] | 16600 nM | Negative | Extensive |  |  |  |  |  | Negative | NEG | DILI negative | NEG | Non-hepatotoxic |  |
| CCCCNc1cc(C(=O)O)cc(S(N)(=O)=O)c1Oc1ccccc1 [Bumetanide] | 80 nM | Negative | Moderate |  |  |  |  |  |  | POS | High DILI concern | POS |  | FDA (0-8) (clinical DILI in man; in vivo): 3; Xu et al. (2008) (clinical DILI in man; in vivo): Positive |
| CN(C)/N=N/c1[nH]cnc1C(N)=O [Dacarbazine] | 16600 nM | Positive | Extensive |  |  |  |  |  |  | POS | Severe DILI | POS | Hepatocellular injury | FDA (0-8) (clinical DILI in man; in vivo): 6; FDA (Severity) (clinical DILI in man; in vivo): most DILI concern; Guo et al. (2005) (clinical DILI in man; in vivo): 3; Sakatis et al. (2012) (clinical DILI in man; in vivo): Hepatotoxic |
